± gives the expanded uncertainty stated by the source.
Conditions: Liquid, Ebulliometric method (Recirculating still)

COCC(C)O (centres undefined) [1-methoxy-2-propanol]
vapor or sublimation pressure (393.15 K): 101.3 ± 1.5 kPa

COC(C)CO (centres undefined) [2-methoxy-1-propanol]
vapor or sublimation pressure (402.65 K): 101.3 ± 1.5 kPa

COCCO [2-methoxyethan-1-ol]
vapor or sublimation pressure (397.67 K): 101.3 ± 1.5 kPa

O [water]
vapor or sublimation pressure (373.19 K): 101.3 ± 1.5 kPa

Source: the NIST ThermoML archive (doi:10.1021/acs.jced.6b00895)
